Assays:
[1] = test system: genotype A, “Long” strain RSV; experiment: RSV-A assay (CPE, ATPlite readout in Hep-2 cells); type: cell-based, Human respiratory syncytial virus; details: human respiratory syncytial virus, activity class
Source text: Hep-2 cells, (originally derived from tumors grown in irradiated-cortisonised weanling rats that had been injected with epidermoid carcinoma tissue from the larynx of a person, but later found to be indistinguishable from HeLa cells by PCR DNA analysis), were used for the culturing of genotype A, “Long” strain RSV. Flasks were inoculated with RSV and viral stocks were collected once cytopathic effect (CPE) was greater than 90%. Viral stocks in 25% sucrose media were snap frozen using liquid nitrogen to increase viral stability. Viral stock titers were quantified by tissue culture infectious dose 50% (TCID50) using 8,000 cells per well and 3-fold viral dilutions across a 96-well plate, cultured for 4 days. Viral stock titers were also quantified by a plaque forming unit assay, as described elsewhere.
Following extensive parameter testing, the final assay is run as follows: Hep-2 cells are seeded into the inner 60 wells of a 96-well plate at 8,000 cells per well in a volume of 50 μL using Growth Media (DMEM without phenol red, 1% L-Glut, 1% Penn/Strep, 1% nonessential amino acids, 10% heat-inactivated FBS). 2-fold serial dilutions of control and test compounds are added to the wells in duplicate in a total volume of 25 μL. Viral stock is then added to the wells at a multiplicity of infection (MOI) of 0.1 in a volume of 25 μL, bringing the total volume of each well to 100 μL. The MOI is calculated using the PFU/mL, or TCID50 if unavailable. Each 96-well plate has a control column of 6 wells with cells and virus but no compound (negative control, max CPE), a column with cells but no compound or virus (positive control, minimum CPE), and a column with no cells or virus or compound (background plate/reagent control). The control wells with cells but no virus are given an additional 25 μL of growth media containing an equal quantity of sucrose as those wells receiving the viral stock in order to keep consistent in media and volume conditions. The outer wells of the plate are filled with 125 μL of moat media (DMEM, 1% Penn/Strep) to act as a thermal and evaporative moat around the test wells. Following a 5-day incubation period, the plates are read using ATPlite (50 uL added per well), which quantifies the amount of ATP (a measure of cell health) present in each well. Assay plates are read using the Envision luminometer. […] EC50 ranges are as follows: A<0.2 μM; B>0.2 μM.

[2] = test system: HMPV clinical isolate A2 strain TN 94-49; experiment: HMPV antiviral assay, Method 2 (LLC-MK2 cells with CP-100-356, ATP-Lite); type: cell-based; details: human metapneumovirus
In short: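 LLC-MK2 rhesus kidney cells (5,000/well) infected in suspension with HMPV A2 TN 94-49 at MOI 0.16, in serum-free medium with final 2 μg/mL TPCK-trypsin and 2 μM CP-100-356. Compounds tested in duplicate from 200 nM, 2.5-fold, 10 points; 7 days at 37 °C. Cell health by ATP-Lite luminescence; EC50 by four-parameter fit.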

[3] = hMPV A2 TN/94-49, LLC-MK2 cells with CP-100-356, Method 2
[4] = 168 h, hMPV A2 TN/94-49, LLC-MK2 cells with 4 μM CP-100-356, 7 days, ATP-Lite

| EC50 [1] [nM] | EC50 [2, 3] [nM] | EC50 [2, 4] [nM] | Structure (SMILES) |
| --- | --- | --- | --- |
| < 200 | < 200 | – | COc1cc(C(=O)NC[C@](O)(c2cc3c(c(-c4ccc(F)c(Cl)c4Cl)n2)OC[C@]3(C)C(N)=O)C2CC2)cc2cc(Cl)cnc12 [Example 320] |
| < 200 | – | < 200 | COc1cc(C(=O)NC[C@](O)(c2cc3c(c(-n4ccc5c(F)cccc54)n2)OC[C@]3(C)C(N)=O)C2(F)CC2)cn2cc(C3CC3)nc12 [Example 690] |
| < 200 | > 200 | – | COc1cc(C(=O)NC[C@](O)(c2cc3c(c(-c4ccnc(C)c4Cl)n2)OC[C@]3(C)C(N)=O)C2(F)CC2)cc2cn(C(F)F)nc12 [Example 527] |
| < 200 | – | < 200 | COc1cc(C(=O)NC[C@](O)(c2cc3c(c(-n4ccc5cc(F)ccc54)n2)OC[C@]3(C)C(N)=O)C(F)(F)F)cc2cn(C3CC3)nc12 [Example 852] |
| < 200 | < 200 | – | COc1cc(C(=O)NC[C@](O)(c2cc3c(c(-c4cc(C)ncc4F)n2)OC[C@]3(C)C(N)=O)C2CC2)cc2cn(C3CC3)nc12 [Example 412] |
| < 200 | < 200 | – | COc1cc(C(=O)NC[C@](O)(c2cc3c(c(-c4cc(F)nc(F)c4)n2)OC[C@]3(C)C(N)=O)C2CC2)cc2cn(C3CC3)nc12 [Example 390] |
| < 200 | – | < 200 | COc1cc(C(=O)NC[C@](O)(c2cc3c(c(-n4ncc5c(F)cccc54)n2)OC[C@]3(C)C(N)=O)C2CC2)cc2cn(C3CC3)nc12 [Example 820] |
| < 200 | > 200 | – | COc1cc(C(=O)NC[C@](O)(c2cc3c(c(-c4ccc(F)c(Cl)c4)n2)OC[C@]3(C)C(N)=O)C2CC2)cc2oc(C3CC3)nc12 [Example 111] |
| < 200 | < 200 | – | COc1cc(C(=O)NC[C@](O)(c2cc3c(c(-c4cc(C(F)(F)F)ncc4F)n2)OC[C@]3(C)C(N)=O)C2CC2)cc2cn(C3CC3)nc12 [Example 347] |
| < 200 | – | < 200 | COc1cc(C(=O)NC[C@](O)(c2cc3c(c(-n4ccc5c(F)cccc54)n2)OC[C@]3(C)C(N)=O)C2CC2)cn2cc(C3CC3)nc12 [Example 868] |
| < 200 | < 200 | – | COc1cc(C(=O)NC[C@](O)(c2cc3c(c(-c4cc(C(F)(F)F)c(F)cc4F)n2)OC[C@]3(C)C(N)=O)C2CC2)cc2cn(C3(F)CC3)nc12 [Example 309] |
| < 200 | < 200 | – | COc1cc(C(=O)NC[C@](O)(c2cc3c(c(-c4cc(F)c(F)cc4F)n2)OC[C@]3(C)C(N)=O)C2CC2)cc2cc(Cl)nnc12 [Example 114] |
| < 200 | < 200 | – | COc1cc(C(=O)NC[C@@](O)(c2cccc(F)c2)c2cc3c(c(-c4cc(F)ncc4Cl)n2)OC[C@]3(C)C(N)=O)cc2cn(C3CC3)nc12 [Example 376] |
| < 200 | < 200 | – | COc1cc(C(=O)NC[C@](O)(c2cc3c(c(-c4ccc(F)c(Cl)c4Cl)n2)OC[C@]3(C)C(N)=O)C2CC2)cc2cn(C3(F)CC3)nc12 [Example 322] |
| < 200 | < 200 | – | COc1cc(C(=O)NC[C@@](O)(c2cccc(F)c2)c2cc3c(c(-c4ccnc(F)c4Cl)n2)OC[C@]3(C)C(N)=O)cc2cn(C3(F)CC3)nc12 [Example 401] |
| < 200 | – | < 200 | COc1cc(C(=O)NC[C@](O)(c2cc3c(c(-c4ccnc(C(F)F)c4Cl)n2)OC[C@]3(C)C(N)=O)C2CC2)cc2cn(C(F)F)nc12 [Example 785] |
| < 200 | – | < 200 | COc1cc(C(=O)NC[C@](O)(c2cc3c(c(-n4ccc5c(F)cccc54)n2)OC[C@]3(C)C(N)=O)C2CC2)cc2cn(C(F)F)nc12 [Example 776] |
| < 200 | – | – | COc1cc(C(=O)NC[C@](O)(c2cc3c(c(-n4ccc5ccccc54)n2)OC[C@]3(C)C(N)=O)C2(F)CC2)cc2cn(C3CC3)nc12 [Example 716] |
| < 200 | – | – | COc1cc(C(=O)NC[C@](O)(c2cc3c(c(-n4ccc5cc(F)ccc54)n2)OC[C@]3(C)C(N)=O)C2CC2)cc2cn(C3CC3)nc12 [Example 453] |

The remaining lines, values behind:

| Structure (SMILES) | EC50 [1] [nM] | EC50 [2, 3] [nM] | EC50 [2, 4] [nM] |
| --- | --- | --- | --- |
| COc1cc(C(=O)NC[C@@](O)(c2cccc(F)c2)c2cc3c(c(-c4cc(C(F)(F)F)ncc4F)n2)OC[C@]3(C)C(N)=O)cc2cn(C3CC3)nc12 [Example 408] | < 200 | < 200 | – |
| COc1nccc(-c2nc([C@@](O)(CNC(=O)c3cc(OC4CC4)c4nn(C5CC5)cc4c3)C3CC3)cc3c2OC[C@]3(C)C(N)=O)c1Cl [Example 585] | < 200 | < 200 | – |
| COc1cc(C(=O)NC[C@@](O)(CC2CC2)c2cc3c(c(-c4cc(Cl)c(F)cc4F)n2)OC[C@]3(C)C(N)=O)cc2cn(C3CC3)nc12 [Example 517] | > 200 | > 200 | – |
| COc1cc(C(=O)NC[C@](O)(c2cc3c(c(-c4ccnc(C(F)F)c4Cl)n2)OC[C@]3(C)C(N)=O)C2CC2)cc2oc(C3CC3)nc12 [Example 787] | < 200 | – | < 200 |
| COc1cc(C(=O)NC[C@](O)(c2cc3c(c(-c4cc(F)c(F)cc4F)n2)OC[C@]3(C)C(N)=O)C2CC(F)(F)C2)cc2cn(C3(F)CC3)nc12 [Example 123] | < 200 | < 200 | – |
| C#CC(O)(CNC(=O)c1cc(OC)c2nn(C3CC3)cc2c1)c1cc2c(c(-c3cc(Cl)c(F)cc3F)n1)OC[C@]2(C)C(N)=O (stereo partly shown) [Example 473] | < 200 | > 200 | – |
| COc1cc(C(=O)NC[C@](O)(c2cc3c(c(-c4cc(F)c(F)cc4F)n2)OC[C@]3(C)C(N)=O)C2CC2)ccc1OC[C@@H](C)O [Example 125] | < 200 | > 200 | – |
| COc1cc(C(=O)NC[C@@](O)(C#CC(C)(C)S(C)(=O)=O)c2cc3c(c(-c4cc(Cl)c(F)cc4F)n2)OC[C@]3(C)C(N)=O)cc2cn(C3CC3)nc12 [Example 341] | < 200 | > 200 | – |
| COc1cc(C(=O)NC[C@@](O)(CC#N)c2cc3c(c(-c4cc(Cl)c(F)cc4F)n2)OC[C@]3(C)C(N)=O)cc2cn(C3CC3)nc12 [Example 240] | < 200 | > 200 | – |
| C[C@]1(C(N)=O)COc2c1cc([C@@](O)(CNC(=O)c1cc(OC3CC3)c3ncc(Cl)cc3c1)C1CC1)nc2-c1ccc2c(c1)OC(F)(F)O2 [Example 108] | < 200 | < 200 | – |
| C[C@]1(C(N)=O)COc2c1cc([C@@](O)(CNC(=O)c1cc(OC3CC3)n3nc(C4CC4)cc3c1)C1CC1)nc2-c1ccc(F)c(Cl)c1Cl [Example 325] | < 200 | < 200 | – |
| COc1cc(C(=O)NC[C@](O)(c2cc3c(c(-c4cc(Cl)c(F)cc4F)n2)OC[C@]3(C)C(N)=O)C(C)C)cc2cn(C3CC3)nc12 [Example 476] | < 200 | < 200 | – |
| COc1cc(C(=O)NC[C@](O)(c2cc3c(c(-c4ccnc(C)c4Cl)n2)OC[C@]3(C)C(N)=O)C2(F)CC2)cc2cn(C3CC3)nc12 [Example 531] | < 200 | < 200 | – |
| COc1cc(C(=O)NC[C@](O)(c2cc3c(c(-c4ccnc(C(F)(F)F)c4Cl)n2)OC[C@]3(C)C(N)=O)C2CC2)cc2cc(C3CC3)nn12 [Example 579] | < 200 | < 200 | – |
| COc1cc(C(=O)NCC(O)(c2cccc(F)c2)c2cc3c(c(-c4cc(C(F)(F)F)ncc4Cl)n2)OC[C@]3(C)C(N)=O)cc2cn(C3CC3)nc12 (stereo partly shown) [Example 379] | < 200 | > 200 | – |
| COc1cc(C(=O)NC[C@](O)(c2cc3c(c(-c4cncc(Cl)c4Cl)n2)OC[C@]3(C)C(N)=O)C2CC2)cc2oc(C3CC3)nc12 [Example 774] | < 200 | – | – |

Source: patent US20240368174A1, “Antiviral Heterocyclic Compounds” (Enanta Pharmaceuticals, Inc., priority 2023, published 2024)
